In ChEMBL document CHEMBL1131370, “Identification of potent inhibitors of Plasmodium falciparum plasmepsin II from an encoded statine combinatorial library” (Bioorg Med Chem Lett, 1998):

Key:
Cathepsin D = Cathepsin D (Homo sapiens, UniProt P07339); test: Inhibitory activity against cathepsin D
Plasmepsin II [1] = molecular target: T1, Plasmepsin II (Plasmodium falciparum, UniProt P46925); test: In vitro inhibition of plasmepsin-2 from Plasmodium falciparum.
Plasmodium falciparum = test: Inhibitory activity against Plasmodium falciparum; type: functional, organism-based
Plasmepsin II [2] = molecular target: T1, Plasmepsin II; test: Inhibitory activity against plasmepsin-2 from Plasmodium falciparum

Sequence of Cathepsin D (P07339 65-162 limits assumed): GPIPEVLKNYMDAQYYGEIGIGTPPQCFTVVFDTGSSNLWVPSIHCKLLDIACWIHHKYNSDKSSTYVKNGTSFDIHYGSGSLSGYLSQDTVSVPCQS
Sequence of Cathepsin D (P07339 169-412 limits assumed): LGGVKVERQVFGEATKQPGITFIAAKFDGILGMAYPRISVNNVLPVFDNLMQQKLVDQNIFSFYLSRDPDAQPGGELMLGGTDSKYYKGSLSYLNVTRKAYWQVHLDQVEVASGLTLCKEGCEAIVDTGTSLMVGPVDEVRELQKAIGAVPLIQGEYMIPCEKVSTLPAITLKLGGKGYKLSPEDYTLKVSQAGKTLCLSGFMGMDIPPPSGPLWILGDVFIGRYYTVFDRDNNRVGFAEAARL
T1 sequence (P46925 whole entry): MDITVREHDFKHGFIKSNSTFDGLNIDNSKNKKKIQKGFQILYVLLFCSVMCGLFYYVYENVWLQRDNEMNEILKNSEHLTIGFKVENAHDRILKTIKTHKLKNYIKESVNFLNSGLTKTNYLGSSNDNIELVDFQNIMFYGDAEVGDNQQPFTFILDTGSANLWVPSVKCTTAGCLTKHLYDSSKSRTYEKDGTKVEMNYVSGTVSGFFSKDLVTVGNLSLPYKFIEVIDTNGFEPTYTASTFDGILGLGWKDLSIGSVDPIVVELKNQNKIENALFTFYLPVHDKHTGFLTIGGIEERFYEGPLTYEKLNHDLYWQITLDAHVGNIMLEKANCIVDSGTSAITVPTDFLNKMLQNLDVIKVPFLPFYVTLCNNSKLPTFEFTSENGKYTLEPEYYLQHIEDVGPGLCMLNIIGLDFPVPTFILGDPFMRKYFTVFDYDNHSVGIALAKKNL

Row | Ki (Cathepsin D) | Ki (Plasmepsin II [1]) | IC50 (Cathepsin D) | IC50 (Plasmodium falciparum) | Ki (Plasmepsin II [2]) | Structure (SMILES)
1 | 200 nM | > 30000 nM | – | – | – | CCCCNC(=O)CC(O)C(Cc1ccccc1)NC(=O)[C@H](CCC(N)=O)NC(=O)COc1ccc2ccccc2c1 (some centres not stated)
2 | 1300 nM | 12000 nM | – | – | – | CCCCNC(=O)CC(O)C(CC(C)C)NC(=O)[C@H](Cc1ccccc1)NC(=O)COc1ccc2ccccc2c1 (some centres not stated)
3 | 700 nM | 15000 nM | – | – | – | CCCCNC(=O)CC(O)C(Cc1ccccc1)NC(=O)[C@H](NC(=O)COc1ccc2ccccc2c1)c1ccccc1 (some centres not stated)
4 | 200 nM | 560 nM | – | – | – | CCCCNC(=O)CC(O)C(Cc1ccccc1)NC(=O)[C@@H](NC(=O)COc1ccc2ccccc2c1)c1ccccc1 (some centres not stated)
5 | 110 nM | 5800 nM | – | – | – | CCCCNC(=O)CC(O)C(CC(C)C)NC(=O)[C@@H](NC(=O)COc1ccc2ccccc2c1)c1ccccc1 (some centres not stated)
6 | – | 110 nM | 500 nM | ~10000 nM | – | CCCCNC(=O)CC(O)C(Cc1ccccc1)NC(=O)[C@@H](NC(=O)COc1ccc2ccccc2c1)[C@@H](C)CC (some centres not stated)
7 | 6200 nM | > 30000 nM | – | – | – | CCCCNC(=O)CC(O)C(Cc1ccccc1)NC(=O)[C@@H](NC(=O)c1ccc(OC)cc1OC)c1ccccc1 (stereo in doubt; form 2)

The next lines start with the compound.

Row | Structure (SMILES) | Ki (Cathepsin D) | Ki (Plasmepsin II [1]) | IC50 (Cathepsin D) | IC50 (Plasmodium falciparum) | Ki (Plasmepsin II [2])
8 | CCCCNC(=O)CC(O)C(CC(C)C)NC(=O)[C@H](CC(C)C)NC(=O)COc1ccc2ccccc2c1 (some centres not stated) | 920 nM | 5600 nM | – | – | –
9 | CCCCNC(=O)CC(O)C(Cc1ccccc1)NC(=O)[C@@H](NC(=O)c1ccc(OC)cc1OC)C(C)C (some centres not stated) | 1600 nM | 500 nM | – | – | –
10 | CCCCNC(=O)CC(O)C(Cc1ccccc1)NC(=O)[C@@H](NC(=O)c1ccc(CN2CCCC2)cc1)[C@@H](C)CC (some centres not stated) | – | 220 nM | 1200 nM | ~10000 nM | –
11 | CCCCNC(=O)CC(O)C(Cc1ccccc1)NC(=O)[C@@H](NC(=O)c1ccc(OC)cc1OC)[C@@H](C)CC (some centres not stated) | 2400 nM | 220 nM | – | – | –
12 | CCCCNC(=O)CC(O)C(Cc1ccccc1)NC(=O)[C@@H](NC(=O)c1ccc(OC)cc1OC)c1ccccc1 (stereo in doubt; form 1) | 2100 nM | 590 nM | – | – | –
13 | CC[C@H](C)[C@H](NC(=O)CN1CCC(C(N)=O)(c2ccccc2)CC1)C(=O)NC(Cc1ccccc1)C(O)CC(=O)NCCCc1ccccc1 (some centres not stated) | 3900 nM | 600 nM | – | – | –
14 | CCC(C)C(NC(=O)c1ccc(CNC)cc1)C(=O)NC(CC(C)C)C(O)CC(=O)NCCCc1ccccc1 (configuration not stated) | 1300 nM | 440 nM | – | – | –
15 | CCCCNC(=O)CC(O)C(Cc1ccccc1)NC(=O)[C@@H](NC(=O)CN1CCC(C(N)=O)(c2ccccc2)CC1)[C@@H](C)CC (some centres not stated) | – | 410 nM | 5500 nM | ~20000 nM | –
16 | CCCCNC(=O)CC(O)C(Cc1ccccc1)NC(=O)[C@@H](NC(=O)Cc1ccc2ccccc2c1)[C@@H](C)CC (some centres not stated) | 50 nM | 90 nM | – | – | –
17 | CCCCNC(=O)CC(O)C(CC(C)C)NC(=O)[C@@H](NC(=O)Cc1ccc2ccccc2c1)[C@@H](C)CC (some centres not stated) | 320 nM | – | – | – | 50 nM
